# pIC50: −log10 of the molar value.
# Tested on: 266295-075-R-J1-PDC spheroid viability
# Assay: Anticancer human tumor 266295-075-R-J1-PDC patient-derived head and neck squamous carcinoma cell line growth inhibition [POLQ]
# Details: spheroids with HUVEC and MSC; for pIC50: curve of first compound; for viability, T/C: stronger effect = lower value
# Procedure, shortened: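 Complex spheroid viability model combining PDC tumour cells with endothelial (HUVEC) and MSC stromal cells. Novobiocin, ART-558 or RP6685 were tested singly and in combination with standard and investigational anticancer drugs. Each was titrated in half-log steps from near clinical Cmax, or from 10 microM where Cmax was unknown.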
# [1] = second compound 0.0316 µM, first compound 0.0316 µM
# [2] = second compound 0.0316 µM, first compound 0.1 µM
# [3] = second compound 0.0316 µM, first compound 0.316 µM
# [4] = second compound 0.0316 µM, first compound 1 µM
# [5] = second compound 0.0316 µM, first compound 3.16 µM
# [6] = second compound 0.0316 µM, first compound 10 µM
# [7] = second compound 0.1 µM, first compound 0.0316 µM
# [8] = second compound 0.1 µM, first compound 0.1 µM
# [9] = second compound 0.1 µM, first compound 0.316 µM
# [10] = second compound 0.1 µM, first compound 1 µM
# [11] = second compound 0.1 µM, first compound 3.16 µM
# [12] = second compound 0.1 µM, first compound 10 µM
# [13] = second compound 0.316 µM, first compound 0.0316 µM
# [14] = second compound 0.316 µM, first compound 0.1 µM
# [15] = second compound 0.316 µM, first compound 0.316 µM
# [16] = second compound 0.316 µM, first compound 1 µM
# [17] = second compound 0.316 µM, first compound 3.16 µM
# [18] = second compound 0.316 µM, first compound 10 µM
# [19] = second compound 1 µM, first compound 0.0316 µM
# [20] = second compound 1 µM, first compound 0.1 µM
# [21] = second compound 1 µM, first compound 0.316 µM
# [22] = second compound 1 µM, first compound 1 µM
# [23] = second compound 1 µM, first compound 3.16 µM
# [24] = second compound 1 µM, first compound 10 µM
# [25] = second compound 3.16 µM, first compound 0.0316 µM
# [26] = second compound 3.16 µM, first compound 0.1 µM
# [27] = second compound 3.16 µM, first compound 0.316 µM
# [28] = second compound 3.16 µM, first compound 1 µM
# [29] = second compound 3.16 µM, first compound 3.16 µM
# [30] = second compound 3.16 µM, first compound 10 µM
# [31] = second compound 10 µM, first compound 0.0316 µM
# [32] = second compound 10 µM, first compound 0.1 µM
# [33] = second compound 10 µM, first compound 0.316 µM
# [34] = second compound 10 µM, first compound 1 µM
# [35] = second compound 10 µM, first compound 3.16 µM
# [36] = second compound 10 µM, first compound 10 µM
# 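Further: spheroids exposed to compounds for seven days before readout.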
structure (smiles),measurement,setting,value
C#Cc1c(F)ccc2cc(O)cc(-c3ncc4c(N5CC6CCC(C5)N6)nc(OCC56CCCN5CC(F)C6)nc4c3F)c12 (stereo unspecified) + Cc1cccc(N(C)C(=O)C2C(O)CCN2c2nc(C)cc(C(F)(F)F)c2C#N)c1,pIC50,second compound 0.0316 µM,< 5.00
same,pIC50,second compound 0.1 µM,< 5.00
same,pIC50,second compound 0.316 µM,< 5.00
same,pIC50,second compound 1 µM,< 5.00
same,pIC50,second compound 3.16 µM,5.19
same,pIC50,second compound 10 µM,< 5.00
same,"viability, T/C",[1],91.9%
same,"viability, T/C",[2],76.7%
same,"viability, T/C",[3],82.8%
same,"viability, T/C",[4],66.8%
same,"viability, T/C",[5],66.7%
same,"viability, T/C",[6],57%
same,"viability, T/C",[7],111%
same,"viability, T/C",[8],94.1%
same,"viability, T/C",[9],70%
same,"viability, T/C",[10],62.8%
same,"viability, T/C",[11],59.6%
same,"viability, T/C",[12],55.7%
same,"viability, T/C",[13],102%
same,"viability, T/C",[14],87.4%
same,"viability, T/C",[15],78.6%
same,"viability, T/C",[16],70.6%
same,"viability, T/C",[17],70.9%
same,"viability, T/C",[18],58.8%
same,"viability, T/C",[19],90.3%
same,"viability, T/C",[20],93.1%
same,"viability, T/C",[21],75.5%
same,"viability, T/C",[22],67.3%
same,"viability, T/C",[23],67.8%
same,"viability, T/C",[24],57.8%
same,"viability, T/C",[25],154%
same,"viability, T/C",[26],83.7%
same,"viability, T/C",[27],76.9%
same,"viability, T/C",[28],65.1%
same,"viability, T/C",[29],66.6%
same,"viability, T/C",[30],55.6%
same,"viability, T/C",[31],84.5%
same,"viability, T/C",[32],91.9%
same,"viability, T/C",[33],82.9%
same,"viability, T/C",[34],63.2%
same,"viability, T/C",[35],65.7%
same,"viability, T/C",[36],85%
CCc1cc2c(N3CCc4c(cc(Cn5ccnc5)cc4-c4cn(C)nc4C(F)(F)F)C3=O)cc(C)nc2c(OC)n1 + Nc1ccc(C#CCN(C(=O)Cc2ncc(C(F)(F)F)cc2C(F)(F)F)c2ccc(F)cc2)nn1,pIC50,second compound 0.0316 µM,< 5.00
same,pIC50,second compound 0.1 µM,< 5.00
same,pIC50,second compound 0.316 µM,< 5.00
same,pIC50,second compound 1 µM,< 5.00
same,pIC50,second compound 3.16 µM,< 5.00
same,pIC50,second compound 10 µM,< 5.00
same,"viability, T/C",[1],103%
same,"viability, T/C",[2],96.2%
same,"viability, T/C",[3],127%
same,"viability, T/C",[4],141%
same,"viability, T/C",[5],122%
same,"viability, T/C",[6],149%
same,"viability, T/C",[7],112%
same,"viability, T/C",[8],113%
same,"viability, T/C",[9],105%
same,"viability, T/C",[10],141%
same,"viability, T/C",[11],163%
same,"viability, T/C",[12],137%
same,"viability, T/C",[13],102%
same,"viability, T/C",[14],105%
same,"viability, T/C",[15],91%
same,"viability, T/C",[16],144%
same,"viability, T/C",[17],129%
same,"viability, T/C",[18],152%
same,"viability, T/C",[19],106%
same,"viability, T/C",[20],94.2%
same,"viability, T/C",[21],96.7%
same,"viability, T/C",[22],136%
same,"viability, T/C",[23],123%
same,"viability, T/C",[24],133%
same,"viability, T/C",[25],95.3%
same,"viability, T/C",[26],109%
same,"viability, T/C",[27],130%
same,"viability, T/C",[28],126%
same,"viability, T/C",[29],118%
same,"viability, T/C",[30],120%
same,"viability, T/C",[31],106%
same,"viability, T/C",[32],93.9%
same,"viability, T/C",[33],106%
same,"viability, T/C",[34],115%
same,"viability, T/C",[35],127%
same,"viability, T/C",[36],139%
CC(C)n1c(=O)n(C)c2cnc3cc(F)c(-c4ccc(OCCCN5CCCCC5)nc4)cc3c21 + COC1C(OC(N)=O)C(O)C(Oc2ccc3c(O)c(NC(=O)c4ccc(O)c(CC=C(C)C)c4)c(=O)oc3c2C)OC1(C)C,pIC50,second compound 0.0316 µM,< 5.00
same,pIC50,second compound 0.1 µM,< 5.00
same,pIC50,second compound 0.316 µM,< 5.00
same,pIC50,second compound 1 µM,< 5.00
same,pIC50,second compound 3.16 µM,< 5.00
same,pIC50,second compound 10 µM,< 5.00
same,"viability, T/C",[1],102%
same,"viability, T/C",[2],86.7%
same,"viability, T/C",[3],97.2%
same,"viability, T/C",[4],93.8%
same,"viability, T/C",[5],83%
same,"viability, T/C",[6],72.2%
same,"viability, T/C",[7],105%
same,"viability, T/C",[8],95.5%
same,"viability, T/C",[9],90.3%
same,"viability, T/C",[10],96.5%
same,"viability, T/C",[11],82.8%
same,"viability, T/C",[12],74.5%
same,"viability, T/C",[13],103%
same,"viability, T/C",[14],114%
same,"viability, T/C",[15],90.7%
same,"viability, T/C",[16],100%
same,"viability, T/C",[17],93.9%
same,"viability, T/C",[18],57.2%
same,"viability, T/C",[19],121%
same,"viability, T/C",[20],99.5%
same,"viability, T/C",[21],91.8%
same,"viability, T/C",[22],86.3%
same,"viability, T/C",[23],74.8%
same,"viability, T/C",[24],77.7%
same,"viability, T/C",[25],92.8%
same,"viability, T/C",[26],85.2%
same,"viability, T/C",[27],101%
same,"viability, T/C",[28],78.9%
same,"viability, T/C",[29],74.9%
same,"viability, T/C",[30],66.2%
same,"viability, T/C",[31],124%
same,"viability, T/C",[32],88.4%
same,"viability, T/C",[33],78.3%
same,"viability, T/C",[34],78.5%
same,"viability, T/C",[35],83.3%
same,"viability, T/C",[36],66.3%
